Values of other authors in patent US20040087576A1, “Antimnemonic therapy for hypermemory syndromes” (priority 2002, published 2004).

Legend:
[1] = test system: reconsolidation of retrieved memories; details: in vivo
[2] = test system: conditioned fear; details: in vivo
[3] = test system: rat fear-conditioning; details: rats
[4] = patients; doses of 100-500 mg/day
[5] = test system: PTSD symptoms; details: patients; 10-day course, 40 mg four times daily, versus placebo; assessed 3 months after the trauma
[6] = test system: emotion-related memory; details: rats; post-training administration

## NC(CCCP(=O)(O)O)C(=O)O (stereo not drawn) [AP5]
[1]
  amnesia by blocking the reconsolidation of retrieved memories: induce amnesia by blocking the reconsolidation of retrieved memories

## N[C@@H]1CONC1=O [D-cycloserine]
[2]
  extinction of conditioned fear: facilitate the extinction of conditioned fear

## C[C@]12N[C@H](Cc3ccccc31)c1ccccc12 [MK-801]
[1]
  amnesia by blocking the reconsolidation of retrieved memories: induce amnesia by blocking the reconsolidation of retrieved memories

## COc1ccc(C[C@H]2NC[C@H](O)[C@H]2OC(C)=O)cc1 [anisomycin]
[3]; cue 1 or 14 days after conditioning, drug immediately after cue, tested 24 hours later
  reconsolidation of reactivated memories: blocked reconsolidation of reactivated memories
[3]; cue presented a further twenty four hours after treatment
  fear response to the cue: did not display the fear response

## CC12CC3CC(C)(C1)CC(N)(C3)C2 [memantine]
[4]
  tolerability: well tolerated

## CC(C)NCC(O)COc1cccc2ccccc12 (stereo not drawn) [propranolol]
[5]
  ratings of PTSD symptoms: slightly, but significantly, lower
[6]
  consolidation of emotion-related memory: blocked the consolidation of emotion-related memory
[1]
  amnesia by blocking the reconsolidation of retrieved memories: induce amnesia by blocking the reconsolidation of retrieved memories
